In patent US20250041294A1, “Synergistic compositions for use in the treatment of cancer” (Sartar Therapeutics Oy, priority 2021, published 2025):

Tests used:
Format in all cases: cell-based
SA4 cell line [1] = test: High throughput drug sensitivity and resistance test (CellTiter-Glo, 72 hours); details: SA4; for SA4 cell line: DSS(combo (anagrelide))-DSS(drug): drug combined with anagrelide hydrochloride (100 nM) minus drug alone; for SA4 cell line: DSS(combo (BAY2666605))-DSS(drug): drug combined with BAY2666605 (40 nM) minus drug alone
Protocol: (§1) Cell lines. PDE3A-positive (GIST882, SA4, and GOT3) and PDE3A-negative cell lines (93TT449, 94T778, LPS141, MLS17656-92, MLS402-91, and SW872) were cultured in RPMI Medium 1640 (Gibco) with 5-, 10- or 20% fetal bovine serum (FBS, gibco), 100 U/mL of penicillin, 100 […] and 0.03 mg/mL of L-glutamine (Pen Strep Glut, Gibco, 10378-016) in a humidified, 5% CO2 atmosphere at 37° C.
(§2) High throughput drug sensitivity and resistance test. A sensitivity and resistance of cancer cell lines to 528 compounds were investigated in 9 cell lines (GIST882, SA4, GOT3, 93TT449, 94T778, LPS141, MLS17656-92, MLS402-91, and SW872). In addition, same compounds were investigated together with anagrelide hydrochloride (100 nM) treatment in the PDE3A low expressing cell lines SA4 and GOT3, and with BAY2666605 (40 nM) in all PDE3A-positive cell lines GIST882, SA4 and GOT3. The compounds were dissolved in 100% dimethyl sulfoxide or water and plated in 10-fold dilutions covering a 10,000-fold concentration range on flat clear bottom 384-well microplates as described in detail earlier (Pulkka O P, et al 2019). A cell viability was measured after 72 hours using CellTiter-Glo Cell Viability assay (Promega Inc.) and PHERAstar FS plate reader (BMG Labtech). The data were normalized to negative (0.01% dimethyl sulfoxide only) and positive (100 μmol/L benzethonium chloride) controls.
(§3) A four-parameter logistic dose-response curves were estimated by using the Marquardt-Levenberg algorithm and Breeze analysis platform. Drug responses to the test compounds were measured using the drug sensitivity score (DSS). Drug synergy partners, which were common in investigated cell lines were identified as following: DSS value of a single agent was subtracted from the DSS value of anagrelide-drug combination in single cell lines. […] The analysis was repeated by using BAY2666605 as a PDE3A modulator.

GOT3 cell line [2] = test: as above; details: GOT3; for GOT3 cell line: DSS(combo (anagrelide))-DSS(drug): drug combined with anagrelide hydrochloride (100 nM) minus drug alone; for GOT3 cell line: DSS(combo (BAY2666605))-DSS(drug): drug combined with BAY2666605 (40 nM) minus drug alone
Protocol: as §1, §2, §3

SA4 cell line [3] = test: Drug combination testing with concentration matrices, SynergyFinder 2.0; details: combination with anagrelide, seven-concentration matrices
Protocol: (§4) Drug combination testing with anagrelide and 12 selected drugs was performed as described above but with selected drugs using drug concentration matrices covering seven different concentrations with 3 replicate sample of each combinations and in two replicate assays. […] The tool implements synergy scoring with four major reference models: HSA, Loewe, Bliss and ZIP models. The degree of a drug combination effect can be readily visualized as a synergy landscape map over the dose matrix and ZIP synergy score.

GIST882 cell line [4] = test: as above; details: combination with anagrelide, seven-concentration matrices
Protocol: as §4

GOT3 cell line [5] = test: as above; details: combination with anagrelide, seven-concentration matrices
Protocol: as §4

GOT3 and SA4 cell lines = test: High throughput drug sensitivity and resistance test, average over cell lines (anagrelide combination); details: anagrelide combination, average of SA4 and GOT3; aDSS higher than 3.0 = synergy
Protocol: as §1, §2, §3

[6] = system: GIST882, GOT3 and SA4 cell lines; test: High throughput drug sensitivity and resistance test, average over cell lines (BAY2666605 combination); details: for synergy in high-throughput screening (in words): with anagrelide (GOT3, SA4) or BAY2666605 (GIST882, GOT3, SA4); for Average DSS (aDSS): BAY2666605 combination, average of GIST882, SA4 and GOT3, aDSS higher than 3.0 = synergy
Protocol: as §1, §2, §3

[7] = system: GIST882, SA4 and GOT3 cell lines; test: Cell viability assay (96 well, CellTiter-Glo, 72 hours); details: FIG. 2, cell line not stated
Protocol: Cell viability assay. Cells were plated on 96 Well White/Clear Tissue Culture Treated Plate (FALCON, 353377) 24 hours prior to medium change with drugs. Viabilities of cells in different treatments were evaluated 72 hours after treatment incubation with CellTiter-Glo® Luminescent Cell Viability Assay (G7572, Promega) following manufacturer's instruction. Reagent and cells stabilized to room temperature. Reagent added 100 μl/well, shaken for 2 minutes at room temperature and incubated for 10 min at room temperature before measuring the luminescence by using Hidex Sence microplate reader (Hidex oy). Growth medium was used to exclude background signal from the results.

GIST882 cell line [8] = test: High throughput drug sensitivity and resistance test (CellTiter-Glo, 72 hours); details: drug combined with BAY2666605 (40 nM) minus drug alone
Protocol: High throughput drug sensitivity and resistance test. […] In addition, same compounds were investigated together with anagrelide hydrochloride (100 nM) treatment in the PDE3A low expressing cell lines SA4 and GOT3, and with BAY2666605 (40 nM) in all PDE3A-positive cell lines GIST882, SA4 and GOT3. […] A cell viability was measured after 72 hours using CellTiter-Glo Cell Viability assay (Promega Inc.) and PHERAstar FS plate reader (BMG Labtech). The data were normalized to negative (0.01% dimethyl sulfoxide only) and positive (100 μmol/L benzethonium chloride) controls.
as §3

Compound	SA4 cell line: DSS(combo (anagrelide))-DSS(drug) (SA4 cell line [1])	GOT3 cell line: DSS(combo (anagrelide))-DSS(drug) (GOT3 cell line [2])	Average ZIP synergy score (SA4 cell line [3])	Average ZIP synergy score (GIST882 cell line [4])	Average ZIP synergy score (GOT3 cell line [5])	Average DSS (aDSS) (GOT3 and SA4 cell lines)	synergy in high-throughput screening (in words) [6]	synergy with Bcl-family inhibitor A-1155463 (in words) [7]	synergy with Bcl-family inhibitor A-1155463 (in words) ([7]; listed as cilostazol)	GIST882 cell line: DSS(combo (BAY2666605))-DSS(drug) (GIST882 cell line [8])	SA4 cell line: DSS(combo (BAY2666605))-DSS(drug) (SA4 cell line [1])	GOT3 cell line: DSS(combo (BAY2666605))-DSS(drug) (GOT3 cell line [2])	Average DSS (aDSS) [6]
CCN1C(=O)CNc2ncc(-c3ccc(-c4nc[nH]n4)nc3C)nc21 [CC-115]	9.5	0.8	4.1	3.1	1.6	5.15	synergistic	–	–	–	–	–	–
O=C1CCc2cc(OCCCCc3nnnn3C3CCCCC3)ccc2N1 [Cilostazol]	–	–	–	–	–	–	–	does not show synergy	not however achieved	–	–	–	–
Cc1ccc(NS(=O)(=O)c2cccc(C#N)c2)c2[nH]cc(C#N)c12 [E7820]	18.2	7.5	14.8	3	1.6	12.85	synergistic	–	–	–	–	–	–
CO[C@H]1C[C@@H]2CC[C@@H](C)[C@@](O)(O2)C(=O)C(=O)N2CCCC[C@H]2C(=O)O[C@H]([C@H](C)C[C@@H]2CC[C@@H](OCCO)[C@H](OC)C2)CC(=O)[C@H](C)/C=C(\C)[C@@H](O)[C@@H](OC)C(=O)[C@H](C)C[C@H](C)/C=C/C=C/C=C/1C [Everolimus, everolimus]	8.1	3	5.5	5	2.3	5.55	synergistic	–	–	3	12.4	4.1	6.5
Cc1nc(Nc2n[nH]c3c2CN(C(=O)N[C@H](CN(C)C)c2ccccc2)C3(C)C)c2sccc2n1 [PF-03758309]	20.1	3.7	16.8	11.5	8.5	11.9	synergistic	–	–	0.5	13.4	−3.6	3.4
NS(=O)(=O)OC[C@@H]1C[C@@H](n2ccc3c(N[C@H]4CCc5ccccc54)ncnc32)C[C@@H]1O [Pevonedistat, pevonedistat]	13.8	2.7	7.8	4.6	12.7	8.25	synergistic	–	–	9.3	7	6.2	7.5
Cn1cc(CNCC2CCN(c3ncc(C(=O)NO)cn3)CC2)c2ccccc21 [Quisinostat, quisinostat]	15.8	1.9	8.7	6.5	6.9	8.85	synergistic	–	–	8.7	16.2	8	11.0
CO[C@H]1C[C@@H]2CC[C@@H](C)[C@@](O)(O2)C(=O)C(=O)N2CCCC[C@H]2C(=O)O[C@H]([C@H](C)C[C@@H]2CC[C@@H](O)[C@H](OC)C2)CC(=O)[C@H](C)/C=C(\C)[C@@H](O)[C@@H](OC)C(=O)[C@H](C)C[C@H](C)/C=C/C=C/C=C/1C [Sirolimus, sirolimus]	9.5	3.4	–	–	–	6.45	–	–	–	3.4	7.9	2	4.4
CO[C@H]1C[C@@H]2CC[C@@H](C)[C@@](O)(O2)C(=O)C(=O)N2CCCC[C@H]2C(=O)O[C@H]([C@H](C)C[C@@H]2CC[C@@H](OC(=O)C(C)(CO)CO)[C@H](OC)C2)CC(=O)[C@H](C)/C=C(\C)[C@@H](O)[C@@H](OC)C(=O)[C@H](C)C[C@H](C)/C=C/C=C/C=C/1C [Temsirolimus, temsirolimus]	9.8	1.1	3.6	2.8	0.4	5.45	synergistic	–	–	7.4	5.3	1.2	4.6
CC(C)C[C@@H](C(=O)N[C@H](C(=O)OC1CCCC1)c1ccccc1)[C@H](O)C(=O)NO [Tosedostat, tosedostat]	5.1	2.5	–	–	–	3.8	synergistic	–	–	21	14.6	6.7	14.1
CC1(C)CCC(CN2CCN(c3ccc(C(=O)NS(=O)(=O)c4ccc(NCC5CCOCC5)c([N+](=O)[O-])c4)c(Oc4cnc5[nH]ccc5c4)c3)CC2)=C(c2ccc(Cl)cc2)C1 [Venetoclax, venetoclax]	6.2	0	–	–	–	3.1	–	–	–	12.2	29	0.2	13.8
O=C(CCCCCCC(=O)Nc1ccccc1)NO [Vorinostat, vorinostat]	7.2	−0.7	–	–	–	3.25	synergistic	–	–	4.2	13.7	1.6	6.5
